{"source": "patent US11191843B2", "about": "“Multi-arm targeting anti-cancer conjugate” (priority 2017, dated 2021)", "test_system": "orthotopic U87MG brain glioma", "experiment": "Effect on survival in orthotopic U87MG brain glioma model in nude mice", "type": "in vivo", "settings": "BALB/c nude mice, 40 mg·kg^-1 (as irinotecan), i.v. via tail, Q4D×3, dosing from day 12 after inoculation", "experimental": "Experimental animals: Female BALB/c nude mice (number of animals: 150, weeks of age: 6 to 8 weeks) were purchased from Beijing Vital River Laboratory Animal Technology Co., Ltd., and housed in an SPF animal room. The temperature was 20° C. to 25° C., the relative humidity was 40% to 70%, and the light and dark were respectively 12 hours. The animals had free access to water and food. After about one week of normal feeding, upon a veterinary inspection, mice with good physical signs and conditions could be selected for this experiment. A marking pen was used to mark the base of the tails of the animals before the grouping, and each animal was marked by ear clipping after the grouping.\nTransplantable tumor cell strain: Brain glioma cell U87MG, derived from Cell Bank of Committee on Type Culture Collection of Chinese Academy of Science (CAS, stored frozen in liquid nitrogen in the laboratory).\nAccording to the condition of cell growth, the cells were passaged once or twice every week, and were passaged in a ratio of 1:2 to 1:6.\nPreparation of the animal model: U87MG cells in logarithmic phase of growth were collected. […] The cells were charged into a 50 mL centrifuge tube after being pipetted with a pipettor to make them evenly dispersed, and the centrifuge tube was placed in an ice box. […]\nData recording and calculation formula: The survival time of the animals were recorded."}
{"smiles": "CCc1c2c(nc3ccc(OC(=O)N4CCC(N5CCCCC5)CC4)cc13)-c1cc3c(c(=O)n1C2)COC(=O)[C@]3(O)CC", "note": "[irinotecan]", "values": [{"measurement": "Median survival time", "value": 27, "unit": "days"}]}
